Measurements taken from patent US20250034579A1, “METHODS AND COMPOSITIONS FOR GENETICALLY MODIFYING HUMAN GUT MICROBES” (Cornell University, priority 2021, published 2025).

Assays:
[1] = tested on: Bacteroides and Erysipelotrichaceae microbes; test: Growth curve of bacteria in the presence of bile acids (OD600); type: cell-based; details: 500 μM bile acid, DMSO control; 2 Bacteroides, 7 Erysipelotrichaceae
Procedure: Bacteroides (Bacteroides fragilis 3112 (Bac1) and Bacteroides vulgatus ATCC 8482 (Bac2)) and Erysipelotrichaceae (Clostridium ramosum ATCC 25554 (Ery1), Erysipelatoclostridium ramosum strain 113-1 (Ery2), Clostridium ramosum DSM 24812 (Ery3), Clostridium ramosum DSM 1402 (Ery4), HM-173 Clostridium innocuum 6_1_30 (Ery5), Clostridium innocuum DSM 22910 (Ery6) and Holdemania filiformis DSM 12042 (Ery7)) were streaked from a glycerol stock onto TSAB agar plates and incubated anaerobically for ˜ 24 h at 37° C. Three colonies were inoculated into 1 ml of Mega broth and were anaerobically cultured for overnight at 37° C. Cells were diluted 1,000-fold into Mega broth to reach late-log phase. Then 5 μL of the culture was resuspended in 145 μL broth, loaded into a 96-well plated, and incubated anaerobically at 37° C. in Multiskan Sky Microplate Spectrophotometer (Thermo Fisher Scientific). Four bile acids (CA, 7-oxoCA, DCA, and 3-oxoDCA, 500 μM each) were tested with their solvent DMSO as control. Optical densities at 600 nm (OD600) were recorded every 60 min until the cultures reached the stationary phase. Bacterial growth curves were performed in triplicate with each biological replicate deriving from a single colony.

[2] = tested on: Erysipelotrichaceae microbes; type: cell-based; details: in vitro consortium of 2 Bacteroides and 7 Erysipelotrichaceae; DCA at 0, 250 and 500 μM
[3] = SPF mice; drinking water with thiamphenicol 15 μg/ml and erythromycin 10 μg/ml
[4] = tested on: Bacteroidia (Prevotella and Bacteroides) microbes; test: Antibiotics test of Gram-negative Bacteroidia strains on agar plates; type: cell-based; details: 66 Bacteroidia strains; TSAB plates with 15 μg/mL thiamphenicol (or MICs)

SMILES | resistance of Erysipelotrichaceae microbes versus Bacteroides microbes (growth curve) [1] | expansion of Erysipelotrichaceae microbes (relative fold change by qPCR) [2] | accumulation of supplemented antibiotic in the feces [3] [pmol/mg] | resistance against thiamphenicol [4]
C[C@H](CCC(=O)O)[C@H]1CC[C@H]2[C@@H]3CC[C@@H]4C[C@H](O)CC[C@]4(C)[C@H]3C[C@H](O)[C@]12C [DCA, deoxycholic acid] | more resistant | drives expansion |  | 
CS(=O)(=O)c1ccc([C@@H](O)[C@@H](CO)NC(=O)C(Cl)Cl)cc1 [thiamphenicol] |  |  | ~5 | not resistant
C[C@H](CCC(=O)O)[C@H]1CC[C@H]2[C@@H]3CC[C@@H]4CC(=O)CC[C@]4(C)[C@H]3C[C@H](O)[C@]12C [3-oxo DCA] | more resistant |  |  | 
